Test results taken from publication PMC2802534 (Journal of medicinal chemistry, 2009).

Key:
[1] = tested on: HIV-1IIIB; assay: Inhibition of HIV-1 IIIB replication in MT-2 cells, p24 production by ELISA; assay type: cell-based; settings: for fold more potent than 12 and 13: replication of HIV-1 IIIB and 94UG103, relative to 12 and 13
[2] = tested on: HIV-1; settings: previously identified; cited from earlier work

Row | Compound | fold more potent than 12 and 13 [1] | inhibit HIV-1 infection [2] | other results
1 | O=C(O)c1cccc(-c2ccc(/C=C3\SC(=S)N(CCc4ccccc4)C3=O)o2)c1 [11a, 3-{5-[4-Oxo-3-phenethyl-2-thioxothiazolidin-5-ylidenemethyl]furan-2-yl}-benzoic acid] | more than 20 fold |  | 
2 | Cc1ccc(-c2ccc(/C=C3\SC(=S)N(CCc4ccccc4)C3=O)o2)cc1C(=O)O [11b, 2-Methyl-5-{5-[4-oxo-3-phenethyl-2-thioxothiazolidin-5-ylidenemethyl]furan-2-yl}-benzoic acid] | more than 20 fold |  | 
3 | O=C(O)c1cc(-c2ccc(/C=C3\SC(=S)N(CCc4ccccc4)C3=O)o2)ccc1Cl [11d, 2-Chloro-5-{5-[4-oxo-3-phenethyl-2-thioxothiazolidin-5-ylidenemethyl]furan-2-yl}-benzoic acid] | more than 20 fold |  | fold greater potency than 13 ([1]; relative to 13): ~ 25 fold
4 | O=C(O)c1cc(-c2ccc(/C=C3\SC(=S)N(CCc4ccccc4)C3=O)o2)ccc1Br [11i, 2-Bromo-5-{5-[4-oxo-3-phenethyl-2-thioxothiazolidin-5-ylidenemethyl]furan-2-yl}-benzoic acid] |  |  | fold reduction of anti-HIV-1 activity ([1]; relative to unsubstituted 11a): ~ 7 fold
5 | Cc1ccc(C)n1-c1ccc(C(=O)O)c(O)c1 [compound 12, N-(4-carboxy-3-hydroxy)phenyl-2,5-dimethylpyrrole] |  | low μM level | 
6 | O=C(O)c1cc(-n2cccc2)ccc1Cl [compound 13, N-(3-carboxy-4-chloro) phenylpyrrole] |  | low μM level | 
